ChEMBL document CHEMBL4818988, “Structure-Activity Relationships for the Marine Natural Product Sintokamides: Androgen Receptor N-Terminus Antagonists of Interest for Treatment of Metastatic Castration-Resistant Prostate Cancer” (J Nat Prod, 2021)
Activity calls are given as the source filed them. The calls are words filed in the database; no cut-off is given here.

What was measured:
[1] = molecular target: T1, Androgen receptor (Homo sapiens) (UniProt P10275); assay: Antagonist activity at AR in human LNCaP cells transfected with PSA assessed as inhibition of R1881-induced PSA luciferase activity pretreated with compound followed by R1881 addition at 25 uM and measured after 48 hrs by luciferase assay; format: cell-based
T1 sequence (whole entry): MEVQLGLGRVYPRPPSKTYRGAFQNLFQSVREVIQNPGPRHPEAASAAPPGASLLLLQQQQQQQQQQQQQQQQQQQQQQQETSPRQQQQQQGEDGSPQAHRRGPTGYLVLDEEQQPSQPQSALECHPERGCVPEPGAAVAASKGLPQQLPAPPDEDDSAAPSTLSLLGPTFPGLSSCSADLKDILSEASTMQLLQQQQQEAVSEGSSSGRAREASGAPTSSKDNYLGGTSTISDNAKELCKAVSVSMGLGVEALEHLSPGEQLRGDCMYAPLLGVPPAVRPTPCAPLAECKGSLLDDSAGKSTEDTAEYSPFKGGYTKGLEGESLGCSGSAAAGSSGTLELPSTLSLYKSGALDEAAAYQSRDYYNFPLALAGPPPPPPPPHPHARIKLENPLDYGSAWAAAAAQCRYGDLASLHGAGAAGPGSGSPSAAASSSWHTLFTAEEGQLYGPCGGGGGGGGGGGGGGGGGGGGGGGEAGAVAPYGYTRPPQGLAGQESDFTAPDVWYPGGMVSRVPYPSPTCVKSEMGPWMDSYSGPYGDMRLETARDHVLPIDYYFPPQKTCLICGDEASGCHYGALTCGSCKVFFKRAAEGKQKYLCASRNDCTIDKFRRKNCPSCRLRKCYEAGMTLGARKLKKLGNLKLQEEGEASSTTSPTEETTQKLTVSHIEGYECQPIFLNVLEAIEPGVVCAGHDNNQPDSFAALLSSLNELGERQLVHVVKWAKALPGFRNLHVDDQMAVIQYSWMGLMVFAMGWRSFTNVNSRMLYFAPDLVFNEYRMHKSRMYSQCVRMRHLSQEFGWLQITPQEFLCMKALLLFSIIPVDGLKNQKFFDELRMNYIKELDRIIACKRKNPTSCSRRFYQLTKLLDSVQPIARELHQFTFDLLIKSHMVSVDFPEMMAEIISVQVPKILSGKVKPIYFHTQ

[2] = molecular target: T1, Androgen receptor (Homo sapiens); assay: Antagonist activity at AR in human LNCaP cells transfected with PSA assessed as inhibition of R1881-induced PSA luciferase activity pretreated with compound followed by R1881 addition at 50 uM and measured after 48 hrs by luciferase assay; format: cell-based
[3] = molecular target: T1, Androgen receptor (Homo sapiens); assay: Antagonist activity at AR in human LNCaP cells transfected with PSA assessed as inhibition of R1881-induced PSA luciferase activity pretreated with compound followed by R1881 addition at 10 uM and measured after 48 hrs by luciferase assay; format: cell-based
[4] = molecular target: T1, Androgen receptor (Homo sapiens); assay: Antagonist activity at AR in human LNCaP cells transfected with PSA assessed as inhibition of R1881-induced PSA luciferase activity pretreated with compound followed by R1881 addition at 35 uM and measured after 48 hrs by luciferase assay; format: cell-based
[5] = molecular target: T1, Androgen receptor (Homo sapiens); assay: Antagonist activity at AR in human LNCaP cells transfected with PSA assessed as inhibition of R1881-induced PSA luciferase activity pretreated with compound followed by R1881 addition at 15 uM and measured after 48 hrs by luciferase assay; format: cell-based
[6] = molecular target: T1, Androgen receptor (Homo sapiens); assay: Antagonist activity at AR in human LNCaP cells transfected with PSA assessed as inhibition of R1881-induced PSA luciferase activity pretreated with compound followed by R1881 addition at 5 uM and measured after 48 hrs by luciferase assay; format: cell-based
[7] = molecular target: T1, Androgen receptor (Homo sapiens); assay: (§1) Antagonist activity at AR in human LNCaP cells transfected with PSA assessed as inhibition of R1881-induced PSA luciferase activity pretreated with compound followed by R1881 addition and measured after 48 hrs by luciferase assay; format: cell-based; conditions: filed as antagonist
PC-3 = assay: Cytotoxicity against human PC3 cells assessed as reduction in cell viability after 72 hrs by Alamar blue assay; format: functional, cell-based; conditions: PC-3, 72 h
DU-145 = assay: Cytotoxicity against human DU145 cells assessed as reduction in cell viability after 72 hrs by Alamar blue assay; format: functional, cell-based; conditions: DU-145, 72 h
Androgen receptor = molecular target: T2, Androgen receptor (Homo sapiens, UniProt P10275); assay: as §1; format: cell-based
T2 sequence (P10275 whole entry): T1 sequence (whole entry)

CCC(=O)N[C@H](CCCCl)C(=O)N1C(=O)C=C(OC)[C@@H]1CCCCl
Activity [1]: inactive
Activity [2]: inactive
Activity [3]: inactive

CCC(=O)N[C@H](CC(C)C)C(=O)N1C(=O)C=C(OC)[C@@H]1CC(C)C
Activity [4]: inactive
Activity [5]: inactive
Activity [6]: inactive

CCC(=O)N[C@H](CCC(Cl)Cl)C(=O)N1C(=O)C=C(OC)[C@H]1CCC(Cl)Cl
Activity [7]: Dose-Dependent Effect

CCC(=O)N[C@H](CCC(Cl)(Cl)Cl)C(=O)N1C(=O)C=C(OC)[C@H]1CCC(Cl)(Cl)Cl
Activity [7]: Dose-Dependent Effect

CCC(=O)N[C@H](CCC(Cl)(Cl)Cl)C(=O)N1C(=O)C=C(OC)[C@@H]1CCC(Cl)(Cl)Cl
Activity [7]: Dose-Dependent Effect

CCC(=O)N[C@H](C[C@H](C)C(Cl)(Cl)Cl)C(=O)N1C(=O)C=C(OC)[C@@H]1C[C@H](C)C(Cl)Cl
Activity ([3]; filed as antagonist): Active
Activity ([6]; filed as antagonist): Active
IC50 (PC-3): 29 µM
IC50 (DU-145): > 35 µM
IC50 (Androgen receptor): 6.5 µM

CCC(=O)N[C@H](C[C@H](C)C(Cl)(Cl)Cl)C(=O)N1C(=O)C=C(OC)[C@@H]1C[C@H](C)C(Cl)(Cl)Cl
Activity ([3]; filed as antagonist): Active
Activity ([6]; filed as antagonist): Active

CCC(=O)N[C@H](CCC(Cl)Cl)C(=O)N1C(=O)C=C(OC)[C@@H]1CCC(Cl)Cl
Activity [7]: Dose-Dependent Effect
